Several values for one entry are separate records, joined by “and”; a condition that tells them apart may be missing. Equal entries are not always repeated. Ends that are not written are not given here.
Columns and labels:
[1] = Thermodynamic solubility measurement; assay type: physicochemical; conditions: potassium phosphate buffer, pH 7.4, aqueous buffer, thermodynamic from solid
PD1/PDL1 interaction = PD1/PDL1 interaction (Homo sapiens, UniProt Q15116); assay: PD1 ImmunoBlocking ELISA; assay type: biochemical
PD1 = PD1 (Homo sapiens, UniProt Q15116); assay: UV/Vis-colorimetric PDL1-competitive binding kinetics assay
[2] = Far-UV CD spectroscopy, thermal denaturation; assay type: physicochemical; conditions: calculated at 293K from best-fitted melting curves of thermal denaturation recorded by CD; phosphate buffer 15 mM, pH 6.5; RC = random coil

PD1/PDL1 interaction, sequence (Q15116 25-167 limits assumed): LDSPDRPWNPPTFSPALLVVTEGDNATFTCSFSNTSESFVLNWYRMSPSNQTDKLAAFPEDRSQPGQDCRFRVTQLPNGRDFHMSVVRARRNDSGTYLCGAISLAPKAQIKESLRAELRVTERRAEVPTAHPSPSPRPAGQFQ
PD1, sequence (Q15116 25-167 limits assumed): as above

Sequence | solubility thermodynamic [1] [µM] | EC50 (PD1/PDL1 interaction) | Ki (PD1) [nM] | %-Fold, hairpin folded fraction (χF) [2] [%]
RWCARRDYRFDMGFDYWGWE [1c] | 300 ± 100 | 3700 ± 1020 nM | – | –
RWVWGGGGKKGGGGWVWE [2a] | 5800 ± 200 | – | – | 87 ± 1
RWVWRRDYRFDMGFDYWVWE [2c] | – | – | – | 54 ± 1
RWVWRRDYRGDMGFDYWVWE [2b] | 600 ± 100 | – | – | 81 ± 1

Second part, led by results:

solubility thermodynamic [1] [µM] | EC50 (PD1/PDL1 interaction) | Ki (PD1) [nM] | Sequence | %-Fold, hairpin folded fraction (χF) [2] [%]
900 ± 100 | < 600 nM and 290 nM | 41 | RWVARRDYRFDMGFDYWVWE [1e] | –
3400 ± 100 | – | – | RWVARRDYRGDMGFDYWVWE [1d] | –

— PMC10029098 (Chembiochem : a European journal of chemical biology, 2022)
